Experiments:
YAP/TAZ target genes = experiment: RT-qPCR of YAP/TAZ target genes in CD31+ cells of monocrotaline-exposed rats; assay type: in vivo, rat; conditions: daily BAPN or daily i.p. verteporfin 25 mg/kg
Experimental: (§1) Messenger RNAs were reverse transcribed using the Multiscript RT kit (Life Technologies) to generate cDNA. cDNA was amplified via fluorescently labeled Taqman primer sets using an Applied Biosystems 7900HT Fast Real Time PCR device. To specifically determine the relative expression of the two GLS1 isoforms KGA and GAC, TaqMan gene expression assays Hs01014019_m1 and Hs01022166_m1 were used respectively. Fold-change of RNA species was calculated using the formula (2^−ΔΔCt), normalized to RPLP0 expression.
(§2) As previously reported (8, 11), lobes of lung tissue from a rat were diced with scissors, to which 200 μL of collagenase D solution (Sigma) was added for a final concentration of 2 mg/ml collagenase D in 4.8 mL HEPES buffer (pH=7.4). After incubation for 30 min at 37° C. with automated rotation, 20 μL of DNase I (Sigma, final concentration of 80 U/mL DNase I) was added and incubated on ice for 30 min. The solution was filtered twice by a 70 μm cell strainer (BD Biosciences) to yield a single cell suspension. After two rounds of PBS wash, cell pelleting, and resuspension, the ACK lysing buffer (Gibco) was used to remove erythrocytes. Remained cells were incubated 30 min at 4° C. with a mouse anti-rat-CD31 antibody (BD Pharmigen 555025). Cells were PBS washed twice and incubated 15 min with anti-mouse IgG1 MicroBeads (Miltenyi Biotec) according to the manufacturer protocol. Single CD31-positive cells were then collected using an autoMACS Pro Separator, per the manufacturer's instructions (Miltenyi Biotec). The purity (>95%) of CD31 positive cells was confirmed by flow cytometric analysis by a FACScan flow cytometer (BD Biosciences) after cells labeling with the FITC-conjugated anti-CD31 (ab33858, Abcam).
To induce PH, male Sprague-Dawley rats (10-14 week old) were injected intraperitoneally with 60 mg/kg monocrotaline (Sigma-Aldrich). After two days, rats underwent intraperitoneal injection daily with 25 mg/kg of verteporfin (Active Biochemicals Company, Ltd) solubilized in 5% dimethyl sulfoxide (DMSO, Sigma-Aldrich). […]

GLS1 = GLS1 expression by RT-qPCR in monocrotaline-exposed rats; assay type: in vivo, rat; conditions: for GLS expression: CD31+ cells of monocrotaline-exposed rats, daily BAPN or daily i.p. verteporfin 25 mg/kg; for GLS1 expression in lungs: monocrotaline-exposed rats, daily BAPN or daily i.p. verteporfin, vs vehicle, RT-qPCR
Experimental: as §1, §2

[1] = Left ventricular function and systemic blood pressure in treated monocrotaline-exposed rats; assay type: in vivo, rat; conditions: for adverse effects on left ventricular cardiac function: daily BAPN or daily i.p. verteporfin 25 mg/kg
[2] = tested on: monocrotaline-exposed rats; experiment: Atomic force microscopy of pulmonary arteriolar stiffness in monocrotaline-exposed rats; assay type: in vivo, rat
Experimental: Rat lungs were inflated with 0.025 g of OCT by g of body weight, frozen on liquid nitrogen vapor and store at −80° C. Rat lung slices (10 μm thickness) were cut out from their glass slide and the fragment of glass containing the sample was glued on the bottom of a 50 mm dish (Willco Glass Bottom Dish). Before measurements the sample was first rinsed and after covered with 4 ml of PBS 1×. The mechanical properties of the samples were studied using a BioScope Catalyst atomic force microscope (Bruker) coupled with and optical microscope (Leica DMI6000B) that enables, by phase contrast, to pinpoint the areas of interest. For each sample, from five to a maximum of 9 vessels (<100 μm diameter) were analyzed using the “Point and Shoot” method, collecting from 35 to 80 force-distance curves at just as many discrete points. The experiments of microindentation were performed in PBS using a probe with a Borosilicate Glass spherical tip (5 μm of diameter) and a cantilever with a nominal spring constant of 0.06 N/m (Novascan). Indentations were carried out using a velocity of 2 μm/s, in relative trigger mode and by setting the trigger threshold to 2 nN. The apparent Young's modulus was calculated using the NanoScope Analysis 1.50 software (Bruker), fitting the force curves to the Hertz spherical indentation model and using a Poisson's ratio of 0.4. To avoid large indentation, a minimum and a maximum Force Fit Boundary of 5% and 25% respectively of the whole force curve was taken into account for the fit.

PAAFs [3] = experiment: Metabolic activation of PAAFs cultivated on stiff matrix; assay type: cell-based
Description: (§3) A-C) Pharmacological inhibition of GLS1 by either BPTES, C968 or CB839 blunted metabolic activation of PAAFs cultivated on stiff matrix as reflected by decreased glutaminolysis (A), glycolysis (B) and aspartate production (C). D-E) Pharmacological inhibition of GLS1 by either BPTES, C968 or CB839 decreased PAAFs dependent ECM remodelling upon stimulation by pro-inflammatory cytokines (EDN1, IL6 or TGF-b). […] G-H) Fibrilar collagen visualization (G) and quantification (H) by picrosirius red staining confirmed a decreased of ECM remodelling by activated PAAF (TGF-b) in presence of GLS1 inhibitors. I-M) PAAFs were cultivated upon indicated treatments. Cells were removed and pulmonary arterial endothelial cells (PAECs) were cultivated on the matrix synthesized by the PAAF. […] Data are expressed as mean±SEM (*P<0.05, § P<0.01, #P<0.001) of at least 3 independent experiments performed in triplicate. Paired samples were compared by 2-tailed Student's t test, while 1-way ANOVA and post-hoc Tukey's tests were used for group comparisons.

PAAFs [4] = experiment: PAAF-dependent ECM remodelling on cytokine stimulation (RT-qPCR, picrosirius red); assay type: cell-based; conditions: for TGF-b-induced ECM related genes expression / fibroblast activation marker (a-SMA) expression: PAAFs, RT-qPCR; for fibroblast activation marker (a-SMA) expression: TGF-b; for PAAFs dependent ECM remodelling: stimulation by pro-inflammatory cytokines (EDN1, IL6 or TGF-b)
Description: as §3, §1
Picrosirius Red stain was achieved through the use of 5 μm paraffin sections stained with 0.1% Picrosirius Red (Direct Red80, Sigma-Aldrich) and counterstained with Weigert's hematoxylin to reveal fibrillar collagen. The sections were then serially imaged using with an analyzer and polarizer oriented parallel and orthogonal to each other. Microscope conditions (lamp brightness, condenser opening, objective, zoom, exposure time, and gain parameters) were maintained throughout the imaging of all samples. A minimal threshold was set on appropriate control sections for each experiment in which only the light passing through the orthogonally-oriented polarizers representing fibrous structures (i.e., excluding residual light from the black background) was included. The threshold was maintained for all images across all conditions within each experiment. The area of the transferred regions that was covered by the thresholded light was calculated and at least 10 sections/vessel per condition were averaged together (NIH ImageJ software). Targeted LC-MS/MS

[5] = daily BAPN or daily i.p. verteporfin 25 mg/kg
[6] = daily i.p. 10 mg/kg C968 or CB-839, data not shown

Structure (SMILES) | CTGF and CYR61, YAP/TAZ target genes (YAP1-dependent gene expression) (YAP/TAZ target genes) | CTGF and CYR61, YAP/TAZ target genes (YAP1-dependent gene expression) (YAP/TAZ target genes; listed as verteporfin) | GLS expression (GLS1) | GLS expression (GLS1; listed as verteporfin) | GLS1 expression in lungs (GLS1) | adverse effects on left ventricular cardiac function ([1]; data not shown) | adverse effects on systemic blood pressure ([1]; daily i.p. verteporfin 25 mg/kg, data not shown) | pulmonary arteriolar (<100 μm diameter) stiffness, atomic force microscopy [2, 5] | aspartate production (PAAFs [3]) | glutaminolysis (PAAFs [3]) | glycolysis (PAAFs [3]) | metabolic activation of PAAFs (PAAFs [3]) | adverse effects on left ventricular function [1, 6] | adverse effects on systemic blood pressure [1, 6] | TGF-b-induced ECM related genes expression (PAAFs [4]) | fibroblast activation marker (a-SMA) expression (PAAFs [4]) | PAAFs dependent ECM remodelling (PAAFs [4]) | pulmonary arteriolar (<100 μm diameter) stiffness, atomic force microscopy ([2]; daily CB839 vs vehicle)
C=Cc1c(C)c2cc3nc(cc4[nH]c(cc5nc(cc1[nH]2)C(C)=C5CCC(=O)O)c(CCC(=O)OC)c4C)[C@@]1(C)C3=CC=C(C(=O)OC)[C@H]1C(=O)OC [Verteporfin, 3-[(23S,24R)-14-ethenyl-5-(3-methoxy-3-oxopropyl)-22,23-bis(methoxycarbonyl)-4,10,15,24-tetramethyl-25,26,27,28-tetraazahexacyclo[16.6.1.1^3,6.1^8,11.1^13,16.0^19,24]octacosa-1,3,5,7,9,11(27),12,14,16,18(25),19,21-dodecaen-9-yl]propanoic acid] | decrease | decreased | decrease | improved | decreased | without adverse effects | without adverse effects | decreased |  |  |  |  |  |  |  |  |  | 
O=C(Cc1cccc(OC(F)(F)F)c1)Nc1ccc(CCCCc2nnc(NC(=O)Cc3ccccn3)s2)nn1 [CB839] |  |  |  |  |  |  |  |  | decreased | decreased | decreased | blunted | without adverse effects | without adverse effects | decreased | decreased | decreased | decreased
CN(C)c1ccc(C2Nc3ccc4ccccc4c3C3=C2C(=O)CC(C)(C)C3)cc1Br (centres unmarked) [C968, 5-(3-Bromo-4-(dimethylamino)phenyl)-2,2-dimethyl-2,3,5,6-tetrahydrobenzo[a]phenanthridin-4(1H)-one] |  |  |  |  |  |  |  |  | decreased | decreased | decreased | blunted | without adverse effects | without adverse effects | decreased | decreased | decreased | 
N#CCCN [BAPN, β-aminoproprionitrile] | decrease |  | decrease |  | decreased | without adverse effects |  | decreased |  |  |  |  |  |  |  |  |  | 

— US11672795B2, “Compositions and methods for treating pulmonary vascular disease” (UNIVERSITY OF PITTSBURGH-OF THE COMMONWEALTH SYSTEM OF …, priority 2016, dated 2023)
